The test has as its system Pichia pastoris. The test can be described thus: 2-Dimensional gel electrophoresis of yeast protein expression. In kind it is cell-based. The settings on record: 2D gel, 626 spots analyzed, FIG. 2 and 3. Here is the method:
To identify the metabolic changes in the yeast because of the polyphenol feed-strategy, 2-Dimensional gel electrophoreses and gene microarray analysis was conducted on the control, (i.e., a yeast extract without resveratrol growth factor), and a yeast-resveratrol ferment extract produced by the process of the present invention. The first dimension IEF focuses on separation of the proteins based on their isoelectric points and was conducted using the EttanIPGphor system with a manifold for protein loading. The 2nd dimension SDS-PAGE is an electrophoretic method for separating polypeptides according to their molecular weights using the DALT VI Electrophoresis Unit (GE-Amersham, Piscataway N.J.) (2, 6). To remove interfering substances and impurities, the yeast cell extracts were purified using the 2D Clean-up kit provided by GE Amersham. Each purified yeast sample was rehydrated overnight with Thiourea rehydration solution (7M Urea and 2M Thiourea, 2% Chaps, 0.5% Pharmalyte). The rehydrated samples were loaded onto the 1st dimension IEF. […]
FIG. 3 illustrates the laser densitometer comparison of the control versus the yeast/resveratrol of the invention. Reference spot numbering, pI, and MW are given for changing polypeptide spots and analyzed in the samples. […] A total of 626 spots were analyzed.

The structures appear in SMILES notation.

With `Oc1ccc(/C=C/c2cc(O)cc(O)c2)cc1` [resveratrol, 3,4,5-transhydroxystilbene], the “proteomic changes of the yeast versus untreated control” value is on record as “significant proteomic changes”.

The values are drawn from patent US9901538B2, “Personal care composition containing yeast/polyphenol ferment extract” (priority 2008, dated 2018).
